Source: publication PMC8457121, “From Kinase Inhibitors to Multitarget Ligands as Powerful Drug Leads for Alzheimer's Disease using Protein‐Templated Synthesis” (Angewandte Chemie (International Ed. in English), 2021)

What was measured:
LRRK2 = target: T1, LRRK2 (Homo sapiens, UniProt Q5S007); assay: LRRK2 inhibition enzymatic assay (Adapta, ThermoFisher); assay type: biochemical
T1 construct: purchased ThermoFisher (assay run by the company)

BACE1 [1] = target: T2, BACE1 (Homo sapiens, UniProt P56817); assay: BACE1 enzymatic assay (FRET); assay type: biochemical
T2 sequence (P56817 46-501): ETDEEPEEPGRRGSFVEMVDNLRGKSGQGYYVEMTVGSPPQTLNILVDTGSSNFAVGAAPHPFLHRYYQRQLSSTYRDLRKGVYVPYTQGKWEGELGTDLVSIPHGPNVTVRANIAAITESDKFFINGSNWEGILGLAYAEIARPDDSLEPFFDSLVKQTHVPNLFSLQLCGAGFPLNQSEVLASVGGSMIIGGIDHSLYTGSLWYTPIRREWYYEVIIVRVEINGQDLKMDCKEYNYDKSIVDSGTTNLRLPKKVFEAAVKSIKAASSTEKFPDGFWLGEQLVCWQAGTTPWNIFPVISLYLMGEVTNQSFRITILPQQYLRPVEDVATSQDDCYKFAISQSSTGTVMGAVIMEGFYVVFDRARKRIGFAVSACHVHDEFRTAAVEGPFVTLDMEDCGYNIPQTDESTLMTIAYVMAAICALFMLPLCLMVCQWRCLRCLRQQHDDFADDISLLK
Protocol: BACE1 enzymatic assay. BACE1 in vitro assays were carried out using FRET.
μM) carrying the Swedish mutation and containing a rhodamine as a fluorescence donor and a quencher acceptor at each end was used. The intact substrate is weakly fluorescent and becomes highly fluorescent upon enzymatic cleavage.
The assays were conducted in 50 mM sodium acetate buffer, pH 4.5, in a final

BACE1 [2] = target: T2, BACE1; assay: Evaluation of BACE inhibitors kinetics (Lineweaver-Burk); assay type: biochemical; conditions: different concentrations of substrate and compound
Protocol: enzyme concentration (1 U/mL). Inhibitor screening at 10 μM. The mixture was incubated for 60 min at 25 °C under dark conditions and then stopped with 2.5 M sodium acetate. Fluorescence was measured with a FLUOstar Optima (BMG
Labtechnologies GmbH, Offenburg, Germany) microplate reader at 545 nm excitation and 585 nm emission.
Evaluation of BACE Inhibitors Kinetics. To evaluate the mechanism of BACE1 inhibition of the compounds, substrate-dependent kinetic experiments were performed. BACE activity were measured at five different concentrations substrate (1000 -62,5 µM) in the absence or presence of the select inhibitor at two different concentrations. The results are presented as double reciprocal Lineweaver−Burk plots (1/V vs 1/[S]) Figure S1.
Cell culture and treatments. SK-N-MC cells stably expressing the human isoform APP695 (SK-APP cell line D1; SKAPP-D1) were generated by transfection of SK-N-MC cells with a pCDNA3-APP expression vector, and kindly provided by Dr. MJ Bullido. These cells were cultured in DMEM (Thermo Fisher) medium supplemented with 10% FBS (Thermo Fisher), 1 mM glutamine (Sigma-Aldrich), and 100 unit/ml penicillin (Lonza) and […] streptomycin (Lonza).
Cell cultures were maintained in a 5% CO2, humidified atmosphere at 37 °C. […]

PAMPA-BBB test = assay type: in vitro ADME; conditions: PBS pH 7.4 with 5% DMSO
Protocol: CNS penetration: in vitro PAMPA-BBB test. Prediction of the brain penetration was evaluated using a parallel artificial membrane permeability assay (PAMPA).1
Nine quality control compounds (mentioned below) of know BBB permeability
were included in each experiment to validate the analysis set.2 Commercial drugs
dissolved in 250 µL of DMSO (Sigma-Aldrich). 25 µL of these compound stock
solutions were taken and 225 µL of DMSO and 4750 µL of PBS pH 7.4 buffer
were added to reach 5% of DMSO concentration in the experiment and a final
compound concentration in the range of 0.2 to 1.1 mM. Compounds to be
determined their ability to pass the brain barrier (0.5-1 mg) were dissolved in 250
µL of DMSO and 4750 µL of PBS pH 7.4 was carefully added to afford a final
compound concentration in the range of 0.2 to 1.1 mM. Solutions were filtered
using filter PDVF membrane units (diameter 30 mm, pore size 0.45 μm, Symta).
10 µL of each solution were taken and diluted 10-fold with PBS/DMSO (95/5) for
HPLC-MS analysis. The acceptor 96-well plate (Multiscreen®, catalog no.
MAMCS9610, Millipore) was filled with 180 µL of PBS/DMSO (95/5). The donor
96-well plate (Multiscreen® IP Sterile Plate PDVF membrane, pore size is 0.45
M, catalog no. MAIPS4510, Millipore) was coated with 4 µL 20 mg·mL-1 of
for 5 min and then 180 µL of each compound solution was added. Then the donor
plate was put on the acceptor plate and kept for 2.5 h at room temperature. After
incubation, samples were collected from the acceptor plate and diluted 10-fold
with PBS/DMSO (95/5) for HPLC-MS analysis and compared to HPLC-MS of
initial solutions. Absorbance peak of each compound was determined by MS
detection and was used to calculate the concentration of compounds and
Every sample was analysed in two independent
runs. HPLC-MS was performed using a HPLC-MS equipment from Thermo
Fisher coupled to a Finnigan TM LXQ TM detector. Each compound was
analysed using a Sunfire column C18, 3.5 μm (50 mm x 4.6 mm) and acetonitrile
and Milli-Q water (with 0.1% formic acid) as mobile phase. The standard gradient

BACE1 [3] = target: T2, BACE1; assay: In situ click chemistry with BACE1 as template (LC/MS-SIM); conditions: BACE1 0.5 μM, reagents 100 μM, 24 h, room temperature, sodium acetate pH 4.5
Protocol: confirmed by molecular weight. Control experiments in the absence of BACE1 were set up every time the reactions were performed. Experiment with the presence of BSA (1 mg mL−1) instead of the BACE1 enzyme was performed for […]
LRRK2 inhibition enzymatic assay. The LRRK2 inhibitors were evaluated by the ThermoFisher company under the following Adapta Assay. The assay itself can be divided into two phases: a kinase reaction phase, and an ADP detection phase. In the kinase reaction phase, all components required for the kinase reaction are added to the well, and the reaction is allowed to incubate for 60 minutes. After the reaction, a detection solution consisting of a europium labeled anti-ADP antibody, an Alexa Fluor™ 647 labeled ADP tracer, and EDTA (to stop the kinase reaction) is added to the assay well. ADP formed by the kinase reaction (in the absence of an inhibitor) will displace the Alexa Fluor 647 labeled ADP tracer from the antibody, resulting in a decrease in the TR-FRET signal. In the presence of an inhibitor, the amount of ADP formed by the kinase reaction is reduced, and the resulting intact antibodytracer interaction results in a high TR-FRET signal. ADP formation is determined by calculating the emission ratio from […]
The 2X LRRK2 / ERM (LRRKtide) mixture is prepared in 50 mM Tris pH 8.5, […]
Reaction consists of 3.75 - 70 ng LRRK2 and 200 μM ERM (LRRKtide) in 25 mM […]
NaN3. […]

T1 sequence (Q5S007 whole entry): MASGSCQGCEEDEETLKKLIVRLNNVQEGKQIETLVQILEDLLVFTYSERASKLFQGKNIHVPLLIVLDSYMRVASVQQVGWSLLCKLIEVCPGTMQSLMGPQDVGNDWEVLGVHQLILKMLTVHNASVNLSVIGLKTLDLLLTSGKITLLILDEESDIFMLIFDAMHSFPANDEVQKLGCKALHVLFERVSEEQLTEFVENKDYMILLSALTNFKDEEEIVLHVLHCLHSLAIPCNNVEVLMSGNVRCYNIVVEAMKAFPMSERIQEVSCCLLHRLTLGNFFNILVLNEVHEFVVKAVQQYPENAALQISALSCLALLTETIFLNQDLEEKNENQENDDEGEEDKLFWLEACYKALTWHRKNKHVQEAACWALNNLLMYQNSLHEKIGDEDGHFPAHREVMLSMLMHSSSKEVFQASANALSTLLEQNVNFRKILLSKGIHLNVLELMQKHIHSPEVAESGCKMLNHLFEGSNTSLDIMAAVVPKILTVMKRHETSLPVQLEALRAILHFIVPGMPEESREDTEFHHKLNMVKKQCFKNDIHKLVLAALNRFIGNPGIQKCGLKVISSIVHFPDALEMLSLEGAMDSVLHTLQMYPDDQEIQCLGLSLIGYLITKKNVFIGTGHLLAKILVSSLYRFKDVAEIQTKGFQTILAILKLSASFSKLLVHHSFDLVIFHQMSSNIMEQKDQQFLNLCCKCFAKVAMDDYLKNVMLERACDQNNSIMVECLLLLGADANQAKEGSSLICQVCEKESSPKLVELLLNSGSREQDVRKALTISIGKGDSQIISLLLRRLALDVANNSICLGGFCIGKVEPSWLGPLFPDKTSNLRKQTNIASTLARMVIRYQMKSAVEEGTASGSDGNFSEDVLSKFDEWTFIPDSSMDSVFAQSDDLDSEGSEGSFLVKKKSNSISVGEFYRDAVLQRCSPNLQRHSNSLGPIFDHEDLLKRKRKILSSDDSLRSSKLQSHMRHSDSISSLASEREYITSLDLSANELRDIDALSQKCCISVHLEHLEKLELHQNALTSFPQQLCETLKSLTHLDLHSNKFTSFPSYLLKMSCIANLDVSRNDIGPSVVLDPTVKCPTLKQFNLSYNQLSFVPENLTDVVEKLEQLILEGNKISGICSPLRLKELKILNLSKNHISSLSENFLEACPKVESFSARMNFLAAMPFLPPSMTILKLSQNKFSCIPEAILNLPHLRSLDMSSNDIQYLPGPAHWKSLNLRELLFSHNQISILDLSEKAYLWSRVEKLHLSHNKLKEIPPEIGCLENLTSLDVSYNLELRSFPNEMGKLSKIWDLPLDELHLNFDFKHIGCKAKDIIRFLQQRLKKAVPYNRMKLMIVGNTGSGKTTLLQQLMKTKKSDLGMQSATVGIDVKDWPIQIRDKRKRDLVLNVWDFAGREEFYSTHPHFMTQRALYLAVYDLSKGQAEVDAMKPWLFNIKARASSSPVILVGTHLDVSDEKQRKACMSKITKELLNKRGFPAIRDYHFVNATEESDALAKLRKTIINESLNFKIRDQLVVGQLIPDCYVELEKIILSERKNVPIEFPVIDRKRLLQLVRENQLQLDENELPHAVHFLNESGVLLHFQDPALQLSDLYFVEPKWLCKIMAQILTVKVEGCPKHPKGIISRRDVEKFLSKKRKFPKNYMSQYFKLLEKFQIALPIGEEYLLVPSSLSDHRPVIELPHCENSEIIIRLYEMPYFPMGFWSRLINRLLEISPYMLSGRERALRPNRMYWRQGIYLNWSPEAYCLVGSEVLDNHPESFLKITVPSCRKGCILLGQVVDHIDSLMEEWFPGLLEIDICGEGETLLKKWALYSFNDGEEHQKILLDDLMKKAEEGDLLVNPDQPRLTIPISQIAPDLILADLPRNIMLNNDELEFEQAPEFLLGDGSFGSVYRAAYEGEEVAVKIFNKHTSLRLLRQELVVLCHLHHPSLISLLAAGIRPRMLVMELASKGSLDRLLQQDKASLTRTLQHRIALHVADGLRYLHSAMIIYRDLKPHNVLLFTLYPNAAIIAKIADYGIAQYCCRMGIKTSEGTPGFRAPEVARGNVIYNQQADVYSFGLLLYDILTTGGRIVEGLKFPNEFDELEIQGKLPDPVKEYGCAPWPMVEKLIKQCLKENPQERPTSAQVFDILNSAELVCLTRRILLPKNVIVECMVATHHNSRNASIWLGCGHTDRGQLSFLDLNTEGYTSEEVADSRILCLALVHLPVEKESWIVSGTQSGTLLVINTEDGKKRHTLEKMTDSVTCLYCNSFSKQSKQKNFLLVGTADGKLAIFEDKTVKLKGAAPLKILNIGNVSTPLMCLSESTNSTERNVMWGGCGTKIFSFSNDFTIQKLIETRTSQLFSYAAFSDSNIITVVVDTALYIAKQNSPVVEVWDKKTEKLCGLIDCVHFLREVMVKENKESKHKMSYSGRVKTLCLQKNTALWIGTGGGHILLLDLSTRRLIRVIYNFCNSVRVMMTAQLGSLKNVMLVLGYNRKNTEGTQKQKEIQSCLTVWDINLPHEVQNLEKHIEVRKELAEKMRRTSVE

Structure (SMILES): O=C(Nc1nc2ccccc2s1)c1ccc(Cn2cc(COc3ccc(C(=O)Nc4nc5ccccc5s4)cc3)nn2)cc1 [compound 8]
- IC50 (LRRK2): 1830 nM
- IC50 (BACE1 [1]): 3720 nM
- Behavior in the inhibition of BACE1 (Lineweaver–Burk double reciprocal plot) (BACE1 [2]): substrate‐competitive
- Solubility in the conditions of the PAMPA experiment (PAMPA-BBB test): insoluble
- Triazole formation from building blocks in presence of BACE1 (BACE1 [3]): observed
- melting point: 280 to 282 °C (dec.)
